Values belong to the compound of their own block, whether it stands above or below them.
What was measured:
[1] = system: symmetric dimethylation of arginine (SDMA) of PRMT5 substrates in MCF-7 cells; assay: PRMT5 Cell Target Engagement (TE) Assay; type: cell-based; details: MCF-7 cells treated for 3 days, nuclear SDMA by high content imaging, top concentration 10000 nM
How it was run: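 MCF-7 cells treated 3 days at 37 °C with 10-point 1:3 titration from 10000 nM top. Fixed cells stained with anti-SDMA antibody plus Alexa488 secondary and Hoechst; nuclear fluorescence quantified by high-content imaging versus DMSO wells. EC50 from 4-parameter fit of percent fluorescence vs log concentration.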

[2] = biological target: T1, PRMT5-MEP50 enzyme complex (Homo sapiens, UniProt O14744); assay: PRMT5-MEP50 Enzyme Methylation Assay; type: biochemical; details: one EC50 shown: 4 parameters single site sigmoidal model; two shown: first EC50 of 7 parameters biphasic model; 1.0 nM PRMT5-MEP50, 75 nM biotinylated H4R3(Me1) peptide, 15 μM SAM; read-out: Enzyme Methylation Assay (EC50 or EC50 1)
T1 construct: Full-length (FL)-PRMT5-MEP50 enzyme complex; made in house; host or cells: baculovirus-transfected Sf21 cells
Method: PRMT5-MEP50 Enzyme Methylation Assay
PRMT5-MEP50 biochemical assay is a direct measurement of the methylation activity of the enzyme complex on a short peptide substrate derived from the N-terminus of […]. Methylation experiment is performed with recombinant PRMT5-MEP50 protein complex. The assessment of inhibitory effect of small molecules is measured by the effectiveness of the compounds to inhibit this reaction (EC50).
In this assay, the potency (EC50) of each compound was determined from a twenty-point (1:2 serial dilution; top compound concentration of 100000 nM) titration curve using the following outlined procedure. To each well of a white ProxiPlus 384 well-plate, 100 nL of compound (1% DMSO in final assay volume of 10 μL) was dispensed, followed by the addition of 8 μL of 1× assay buffer (50 mM Bicine pH 8.0, 1 mM DTT, 0.004% Tween20, 0.01% BSA) containing 1.25 nM of Full-length (FL)-PRMT5-MEP50 enzyme complex (recombinant proteins from baculovirus-transfected Sf21 cells: FL-PRMT5; MW=[…] and FL-MEP50; MW=38614) and 1 μL of 150 μM S-(5′-Adenosyl)-L-Methionine Chloride (SAM). Plates were sealed and placed in a 37° C. humidified chamber for a 60 minutes pre-incubation with compound. Subsequently, each reaction was initiated by the addition of 1 μL 1× assay buffer containing 750 nM biotinylated H4R3(Me1) peptide. The final reaction in each well of 10 μL consists of 1.0 nM PRMT5-MEP50, 75 nM biotinylated-peptide, and 15 μM SAM. Methylation reactions proceeded for 150 minutes in a sealed plate at 37° C. Reactions were immediately quenched by the addition of 1 μL of 5% formic acid. Plates were then frozen and shipped to SAMDI™ Tech Inc. to determine the percent conversion from H4R3(Me1) to H4R3(Me2). Dose-response curves were generated by plotting percent effect (% product conversion; Y-axis) vs. Log 10 compound concentrations (X-axis). EC50 values were determined by non-linear regression according to models for either sigmoidal (4 parameters) or biphasic (7 parameters) dose-response curves.

T1 sequence (O14744 whole entry): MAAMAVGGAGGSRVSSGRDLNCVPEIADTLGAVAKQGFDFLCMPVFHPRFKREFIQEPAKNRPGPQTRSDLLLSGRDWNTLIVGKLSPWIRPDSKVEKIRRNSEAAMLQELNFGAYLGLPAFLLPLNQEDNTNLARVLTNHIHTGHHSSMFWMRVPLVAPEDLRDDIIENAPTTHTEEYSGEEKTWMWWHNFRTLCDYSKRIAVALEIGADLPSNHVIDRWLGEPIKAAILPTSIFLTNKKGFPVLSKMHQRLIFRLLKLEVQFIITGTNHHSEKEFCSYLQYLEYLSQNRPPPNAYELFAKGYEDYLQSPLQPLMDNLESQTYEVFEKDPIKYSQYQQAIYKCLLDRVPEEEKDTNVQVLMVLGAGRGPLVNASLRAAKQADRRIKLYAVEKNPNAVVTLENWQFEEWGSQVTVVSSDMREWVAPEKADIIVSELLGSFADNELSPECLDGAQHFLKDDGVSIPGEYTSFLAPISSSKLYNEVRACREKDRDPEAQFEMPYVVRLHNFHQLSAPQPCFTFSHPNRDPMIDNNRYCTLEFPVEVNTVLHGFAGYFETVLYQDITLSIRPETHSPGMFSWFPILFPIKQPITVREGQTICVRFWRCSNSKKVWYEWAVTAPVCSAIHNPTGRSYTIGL
T1 sequence (Q9BQA1 whole entry partner): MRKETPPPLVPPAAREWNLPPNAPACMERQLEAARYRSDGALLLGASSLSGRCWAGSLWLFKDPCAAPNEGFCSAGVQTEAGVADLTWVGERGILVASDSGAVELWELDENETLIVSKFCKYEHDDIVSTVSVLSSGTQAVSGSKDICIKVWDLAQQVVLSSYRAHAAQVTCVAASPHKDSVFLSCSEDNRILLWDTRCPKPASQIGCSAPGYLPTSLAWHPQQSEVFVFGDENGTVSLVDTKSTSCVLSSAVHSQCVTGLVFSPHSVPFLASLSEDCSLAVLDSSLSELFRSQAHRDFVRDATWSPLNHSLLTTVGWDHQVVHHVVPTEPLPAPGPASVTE

SMILES: Nc1nc2cc(C[C@@H]3CC[C@@]4(O)[C@@H]3O[C@@H](n3cc(C5CC5)c5c(N)ncnc53)[C@@H]4O)ccc2cc1F [Example 50]
EC50 [1]: 0.7 nM | EC50 [2]: 0.3 nM

SMILES: Nc1nc2cc(CCC3(CF)C[C@@H](n4ccc5c(N)ncnc54)[C@H](O)[C@@H]3O)ccc2cc1Br (stereo partly shown) [Example 102]
EC50 [1]: 2 nM | EC50 [2]: 0.3 nM

SMILES: Nc1nc2cc(O[C@H]3CC[C@@]4(O)[C@@H]3O[C@@H](n3ccc5c(C(F)F)ncnc53)[C@@H]4O)ccc2cc1Br [Example 79, (2R,3R,3aS,6S,6aR)-6-((2-amino-3-bromoquinolin-7-yl)oxy)-2-(4-(difluoromethyl)-7H-pyrrolo[2,3-d]pyrimidin-7-yl)hexabodro-3aH-cyclopenta[b]furan-3,3a-diol]
EC50 [1]: 52.5 nM | EC50 [2]: 2.9 nM

SMILES: Nc1nc2cc(C[C@@H]3CC[C@@]4(O)[C@@H]3C[C@@H](n3cc(F)c5c(N)ncnc53)[C@@H]4O)ccc2cc1Br [Example 42, (1S,2R,3aR,4S,6aR)-4-((2-amino-3-bromoquinolin-7-yl)methyl)-2-(4-amino-5-fluoro-7H-pyrrolo[2,3-d]pyrimidin-7-yl)hexahydropentalene-1,6a(1H)-diol]
EC50 ([1]; Homo sapiens, MCF7, 72 h): 0.3 nM

SMILES: Nc1nc2cc(C[C@@H]3CC[C@@]4(O)[C@@H]3O[C@@H](n3ccc5c(N)ncnc53)[C@@H]4O)ccc2cc1C(F)F [Example 137, (2R,3R,3aS,6S,6aR)-6-((2-amino-3-(difluoromethyl)quinolin-7-yl)methyl)-2-(4-amino-7H-pyrrolo[2,3-d]pyrimidin-7-yl)hexahydro-2H-cyclopenta[b]furan-3,3a-diol]
EC50 ([1]; Homo sapiens, MCF7, 72 h): 0.8 nM

SMILES: Nc1nc2cc(O[C@H]3CC[C@@]4(O)[C@@H]3O[C@@H](n3cc(F)c5c(N)ncnc53)[C@@H]4O)ccc2cc1Cl [Example 74, (2R,3R,3aS,6S,6aR)-6-((2-amino-3-chloroquinolin-7-yl)oxy)-2-(4-amino-5-fluoro-7H-pyrrolo[2,3-d]pyrimidin-7-yl)hexahydro-3aH-cyclopenta[b]furan-3,3a-diol]
EC50 ([1]; Homo sapiens, MCF7, 72 h): 1 nM

SMILES: Cc1nc(C)c2ccn([C@@H]3O[C@@H]4[C@H](Cc5ccc6cc(Br)c(N)nc6c5)CC[C@]4(O)[C@H]3O)c2n1 [Example 81, (2R,3R,3aS,6S,6aR)-6-((2-ammo-3-bromoquinolin-7-yl)methyl)-2-(2,4-dimethyl-7H-pyrrolo[2,3-d]pyrimidin-7-yl)hexahydro-3aH-cyclcopenta[b]furan-3,3a-diol]
EC50 ([1]; Homo sapiens, MCF7, 72 h): 3.9 nM

SMILES: Cc1ncnc2c1ccn2[C@@H]1C[C@@H]2[C@@H](Cc3ccc4cc(F)c(N)nc4c3)CC[C@]2(O)[C@H]1O [Example 18, (1S,2R,3aR,4R,6aR)-4-((2-amino-3-fluoroquinolin-7-yl)methyl)-2-(4-methyl-7H-pyrrolo[2,3-d]pyrimidin-7-yl)hexahydropentalene-1,6a(1H)-diol]
EC50 ([1]; Homo sapiens, MCF7, 72 h): 10.6 nM

Next, values leading:

EC50 ([1]; Homo sapiens, MCF7, 72 h): 7.4 nM
SMILES: C[C@]1(COc2ccc3cc(Br)c(N)nc3c2)C[C@@H](n2ccc3c(N)ncnc32)[C@H](O)[C@@H]1O [Example 100, (1S,2R,3R,5R)-3-(((2-amino-3-bromoquinolin-7-yl)oxy)methyl)-5-(4-amino-7H-pyrrolo[2,3-d]pyrimidin-7-yl)-3-methylcyclopentane-1,2-diol]

EC50 ([1]; Homo sapiens, MCF7, 72 h): 8.8 nM
SMILES: Cc1nc(N)c2c(F)cn([C@@H]3O[C@@H]4[C@H](Cc5ccc6cc(F)c(N)nc6c5)CC[C@]4(O)[C@H]3O)c2n1 [Example 44, (2R,3R,3aS,6S,6aR)-6-((2-amino-3-fluoroquinolin-7-yl)methyl)-2-(4-amino-5-fluoro-2-methyl-7H-pyrrolo[2,3-d]pyrimidin-7-yl)hexahydro-3aH-cyclopenta[b]furan-3,3a-diol 2,2,2-trifluoroacetate]

EC50 ([1]; Homo sapiens, MCF7, 72 h): 13 nM
SMILES: Nc1nc2cc(O[C@H]3CC[C@@]4(O)[C@@H]3O[C@@H](n3cc(-c5ccccc5)c5c(N)ncnc53)[C@@H]4O)ccc2cc1Br [Example 49, (2R,3R,3aS,6S,6aR)-6-[(2-amino-3-bromoquinolin-7-yl)oxy]-2-(4-amino-5-phenyl-7H-pyrrolo[2,3-d]pyrimidin-7-yl)hexahydro-3aH-cyclcopenta[b]furan-3,3a-diol]

EC50 ([1]; Homo sapiens, MCF7, 72 h): 2.9 nM
SMILES: Nc1nc2cc(C[C@@H]3CC[C@@]4(O)[C@@H]3C[C@@H](n3ccc5c(N)ncnc53)[C@@H]4O)ccc2cc1Br [Example 41, (1S,2R,3aR,4S,6aR)-4-((2-amino-3-bromoquinolin-7-yl)methyl)-2-(4-amino-7H-pyrrolo[2,3-d]pyrimidin-7-yl)hexahydropentalene-1,6a (1H)-diol 2,2,2-trifluoroacetate]

EC50 ([1]; Homo sapiens, MCF7, 72 h): 0.5 nM
SMILES: Nc1nc2cc(C[C@@H]3CC[C@@]4(O)[C@@H]3O[C@@H](n3ccc5c(N)ncnc53)[C@@H]4O)cc(F)c2cc1Cl [Example 21, (2R,3R,3aS,6S,6aR)-6-[(2-amino-3-chloro-5-fluoroquinolin-7-yl)methyl]-2-(4-amino-7H-pyrrolo[2,3-d]pyrimidin-7-yl)hexahydro-3aH-cyclopenta[b]furan-3,3a-diol]

From US12173026B2, “PRMT5 inhibitors” (Merck Sharp & Dohme LLC, priority 2018, dated 2024)
